Experimental findings from patent US12338256B2, “Aza-tetracyclic oxazepine compounds and uses thereof” (Genentech, Inc., priority 2022, dated 2025) are described below.

For test [1], the system named is H1975 (KRAS wild type human lung adenocarcinoma cell line). Nature of the test: KRAS 3D-Cell Proliferation Assay, H1975 (Example 503). Format: cell-based. As to conditions: Homo sapiens, NCI-H1975, 168 h, H1975 3D culture, 7 days, CellTiter-Glo 3D; read-out: Prolif H1975 3D ATP IC50. An outline of the steps: (§1)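 3D culture, ultra-low attachment wells; RPMI-1640/10% FBS/2 mM L-glutamine. Overnight settle, then compound series, 0.3% DMSO final, 7 d, 37° C, 5% CO2. Readout: CellTiter-Glo 3D luminescence. % inhibition vs DMSO (0%) and 1 μM staurosporine (100%); IC50 via 4-parameter Hill.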

Test [2] concerns HPAC (homozygous mutant KRAS G12D human pancreatic cell line). Nature of the test: KRAS 3D-Cell Proliferation Assay, HPAC (Example 503). Format: cell-based. The following applies: Homo sapiens, HPAC, 168 h, HPAC 3D culture, 7 days, CellTiter-Glo 3D; read-out: Prolif HPAC 3D ATP IC50. An outline of the steps: as §1

For `Cc1c(F)c(N)cc(-c2nc3c4c(nc(OC[C@@]56C[C@H](F)CN5C[C@H](F)C6)nc4c2F)N2C[C@H]4CC[C@H](N4)[C@H]2[C@H](C)O3)c1C(F)(F)F` [Compound 142, 5-((5S,5aS,6S,9R)-12-(((2R,6S,7as)-2,6-Difluorotetrahydro-1H-pyrrolizin-7a(5H)-yl)methoxy)-1-fluoro-5-methyl-5a,6,7,8,9,10-hexahydro-5H-4-oxa-3,10a,11,13,14-pentaaza-6,9-methanonaphtho[1,8-ab]heptalen-2-yl)-2-fluoro-3-methyl-4-(trifluoromethyl)aniline], the IC50 in test [1] came to 3.56 µM; in test [2], 5.45 nM.

For `C[C@@H]1Oc2nc(N(C)c3ccc(F)c(N)c3)c(F)c3nc(OC[C@@]45CCCN4C[C@H](F)C5)nc(c23)N2C[C@H]3CC[C@H](N3)[C@@H]12` [Compound 193, 4-fluoro-N^1-((5S,5aS,6S,9R)-1-fluoro-12-(((2R,7aS)-2-fluorotetrahydro-1H-pyrrolizin-7a(5H)-yl)methoxy)-5-methyl-5a,6,7,8,9,10-hexahydro-5H-4-oxa-3,10a,11,13,14-pentaaza-6,9-methanonaphtho[1,8-ab]heptalen-2-yl)-N^1-methylbenzene-1,3-diamine], the results for the IC50 in test [1] and in test [2] were 20 µM and 2000 nM, respectively.

`Cc1nc(N)cc(-c2nc3c4c(nc(OCC5(CN6CC7(C6)CC7(F)F)CC5)nc4c2F)N2C[C@H]4CC[C@H](N4)[C@H]2[C@H](C)O3)c1C(F)(F)F` [Compound 277, 4-((5S,5aS,6S,9R)-12-((1-((1,1-difluoro-5-azaspiro[2.3]hexan-5-yl)methyl)cyclopropyl)methoxy)-1-fluoro-5-methyl-5a,6,7,8,9,10-hexahydro-5H-4-oxa-3,10a,11,13,14-pentaaza[6,9]methanonaphtho[1,8-ab]heptalene-2-yl)-6-methyl-5-(trifluoromethyl)pyridin-2-amine]: the results for the half-maximal inhibitory concentration (IC50) in test [1] and in test [2] were 0.974 µM and 2.09 nM, respectively.

`Cc1nc(N)cc(-c2nc3c4c(nc(OC[C@]56CCCN5CC(F)(F)C6)nc4c2F)N2C[C@H]4CC[C@H](N4)[C@H]2[C@H](C)O3)c1C(F)(F)F` [Compound 217, 4-((5S,5aS,6S,9R)-12-(((R)-2,2-difluorotetrahydro-1H-pyrrolizin-7a(5H)-yl)methoxy)-1-fluoro-5-methyl-5a,6,7,8,9,10-hexahydro-5H-4-oxa-3,10a,11,13,14-pentaaza-6,9-methanonaphtho[1,8-ab]heptalen-2-yl)-6-methyl-5-(trifluoromethyl)pyridin-2-amine]: the IC50 is 12.6 µM in test [1] and 38.8 nM in test [2].

As for `Cc1cc(N)c(F)c(-c2nc3c4c(nc(OC[C@@H]5CC[C@H]6COCCN65)nc4c2F)N2C[C@H]4CC[C@H](N4)[C@H]2[C@H](C)O3)c1C=C(F)F` [Compound 99, 4-(2,2-Difluorovinyl)-2-fluoro-3-((5S,5aS,6S,9R)-1-fluoro-12-(((6S,8aS)-hexahydro-1H-pyrrolo[2,1-c][1,4]oxazin-6-yl)methoxy)-5-methyl-5a,6,7,8,9,10-hexahydro-5H-4-oxa-3,10a,11,13,14-pentaaza-6,9-methanonaphtho[1,8-ab]heptalen-2-yl)-5-methylaniline], the IC50 in test [1] worked out at 5.06 µM; in test [2], 40 nM.

Turning to `Cc1nc(N)cc(-c2nc3c4c(nc(OC[C@@]56CCN5CC(F)(F)C6)nc4c2F)N2C[C@H]4CC[C@H](N4)[C@H]2[C@H](C(F)(F)F)O3)c1C(F)(F)F` (single isomer, unassigned) [252 (isomer 1)], the values for the IC50 in test [1] and in test [2] were 7.71 µM and 20.4 nM, respectively.

Consider `Cc1c(F)c(N)cc(-c2nc3c4c(nc(OC[C@@H]5CC[C@H]6COCCN65)nc4c2F)N2C[C@H]4CC[C@H](N4)[C@H]2[C@H](C)O3)c1Cl` [Compound 111, 4-Chloro-2-fluoro-5-((5S,5aS,6S,9R)-1-fluoro-12-(((6S,8aS)-hexahydro-1H-pyrrolo[2,1-c][1,4]oxazin-6-yl)methoxy)-5-methyl-5a,6,7,8,9,10-hexahydro-5H-4-oxa-3,10a,11,13,14-pentaaza-6,9-methanonaphtho[1,8-ab]heptalen-2-yl)-3-methylaniline], for which the figures for the IC50 in test [1] and in test [2] were 1.84 µM and 14.1 nM, respectively.

Consider `C[C@@H]1Oc2nc(-c3cc(N)cc4c3CC4)c(F)c3nc(OC[C@@]45CCCN4C[C@H](F)C5)nc(c23)N2C[C@H]3CC[C@H](N3)[C@@H]12` [Compound 201, 5-((5S,5aS,6S,9R)-1-Fluoro-12-(((2R,7aS)-2-fluorotetrahydro-1H-pyrrolizin-7a(5H)-yl)methoxy)-5-methyl-5a,6,7,8,9,10-hexahydro-5H-4-oxa-3,10a,11,13,14-pentaaza-6,9-methanonaphtho[1,8-ab]heptalen-2-yl)bicyclo[4.2.0]octa-1(6),2,4-trien-3-amine], for which the IC50 was determined as 10.6 µM in test [1] and 407 nM in test [2].

For the molecule `C[C@@H]1Oc2nc(-c3[nH]c(=O)cc4ccccc34)c(F)c3nc(OC[C@@]45CCCN4C[C@H](F)C5)nc(c23)N2C[C@H]3CC[C@H](N3)[C@@H]12` [Compound 105, 1-((5S,5aS,6S,9R)-1-Fluoro-12-(((2R,7aS)-2-fluorotetrahydro-1H-pyrrolizin-7a(5H)-yl)methoxy)-5-methyl-5a,6,7,8,9,10-hexahydro-5H-4-oxa-3,10a,11,13,14-pentaaza-6,9-methanonaphtho[1,8-ab]heptalen-2-yl)isoquinolin-3(2H)-one], the IC50 in test [1] was found to be 20 µM; in test [2], 2000 nM.

In the case of `Cc1nc(N)cc(-c2nc3c4c(nc(OCC5(CN6CC7CCC(C6)O7)CC5)nc4c2F)N2C[C@H]4CC[C@H](N4)[C@H]2[C@H](C)O3)c1C(F)(F)F` [Compound 207, 4-((5S,5aS,6S,9R)-12-((1-((8-oxa-3-azabicyclo[3.2.1]octan-3-yl)methyl)cyclopropyl)methoxy)-1-fluoro-5-methyl-5a,6,7,8,9,10-hexahydro-5H-4-oxa-3,10a,11,13,14-pentaaza-6,9-methanonaphtho[1,8-ab]heptalene-2-yl)-6-methyl-5-(trifluoromethyl)pyridin-2-amine], the IC50 was determined as 1.42 µM in test [1] and 2.36 nM in test [2].

With `Cc1nc(N)cc(-c2nc3c4c(nc(OCC5(CN6CC7(CCC7(F)F)C6)CC5)nc4c2F)N2C[C@H]4CC[C@H](N4)[C@H]2[C@H](C)O3)c1C(F)(F)F` [Compound 285, 4-((5S,5aS,6S,9R)-12-((1-((5,5-difluoro-2-azaspiro[3.3]heptan-2-yl)methyl)cyclopropyl)methoxy)-1-fluoro-5-methyl-5a,6,7,8,9,10-hexahydro-5H-4-oxa-3,10a,11,13,14-pentaaza[6,9]methanonaphtho[1,8-ab]heptalene-2-yl)-6-methyl-5-(trifluoromethyl)pyridin-2-amine], the IC50 came out at 0.608 µM in test [1] and 3.05 nM in test [2].

As to `C[C@@H]1Oc2nc(-c3cc(N)nc(C(F)F)c3C(F)(F)F)c(F)c3nc(OC[C@@]45CCCN4C[C@H](F)C5)nc(c23)N2C[C@H]3CC[C@H](N3)[C@@H]12` [Compound 260, 6-(Difluoromethyl)-4-((5S,5aS,6S,9R)-1-fluoro-12-(((2R,7aS)-2-fluorotetrahydro-1H-pyrrolizin-7a(5H)-yl)methoxy)-5-methyl-5a,6,7,8,9,10-hexahydro-5H-4-oxa-3,10a,11,13,14-pentaaza-6,9-methanonaphtho[1,8-ab]heptalen-2-yl)-5-(trifluoromethyl)pyridin-2-amine], the IC50 in test [1] amounted to 3.25 µM; in test [2] it was 41.5 nM.

As for `Cc1c(F)c(N)cc(-c2nc3c4c(nc(OC[C@@]56CCCN5C[C@H](F)C6)nc4c2F)N2C[C@H]4CC[C@H](N4)C2C(C(F)F)O3)c1C(F)(F)F` (single isomer, unassigned) [238 (isomer 1)], the IC50 is 13.5 µM in test [1] and 2000 nM in test [2].

As to `Cc1c(F)c(N)c(F)c(-c2nc3c4c(nc(OC[C@@]56CCCN5C[C@H](F)C6)nc4c2F)N2C[C@H]4CC[C@H](N4)[C@H]2[C@H](C)O3)c1Cl` [Compound 195, 4-Chloro-2,6-difluoro-3-((5S,5aS,6S,9R)-1-fluoro-12-(((2R,7aS)-2-fluorotetrahydro-1H-pyrrolizin-7a(5H)-yl)methoxy)-5-methyl-5a,6,7,8,9,10-hexahydro-5H-4-oxa-3,10a,11,13,14-pentaaza-6,9-methanonaphtho[1,8-ab]heptalen-2-yl)-5-methylaniline], the figures for the IC50 in test [1] and in test [2] were 1.34 µM and 22.1 nM, respectively.

For `C[C@@H]1Oc2nc(-c3cc(N)c(F)c(F)c3CC(F)F)c(F)c3cc(OC[C@@H]4CC[C@H]5COCCN54)nc(c23)N2C[C@H]3CC[C@H](N3)[C@@H]12` [Compound 158, 4-(2,2-Difluoroethyl)-2,3-difluoro-5-((5S,5aS,6S,9R)-1-fluoro-13-(((6S,8aS)-hexahydro-1H-pyrrolo[2,1-c][1,4]oxazin-6-yl)methoxy)-5-methyl-5a,6,7,8,9,10-hexahydro-5H-6,9-epiminoazepino[2′,1′:3,4][1,4]oxazepino[5,6,7-ij][2,7]naphthyridin-2-yl)aniline], the IC50 in test [1] came to 13.8 µM; in test [2], 9.94 nM.

Regarding `Cc1c(F)c(N)c(F)c(-c2nc3c4c(nc(OC[C@@H]5C[C@@H](F)CN5C)nc4c2F)N2C[C@H]4CC[C@H](N4)[C@H]2[C@H](C)O3)c1C(F)(F)F` [Compound 228, 2,6-Difluoro-3-((5S,5aS,6S,9R)-1-fluoro-12-(((2S,4R)-4-fluoro-1-methylpyrrolidin-2-yl)methoxy)-5-methyl-5a,6,7,8,9,10-hexahydro-5H-4-oxa-3,10a,11,13,14-pentaaza-6,9-methanonaphtho[1,8-ab]heptalen-2-yl)-5-methyl-4-(trifluoromethyl)aniline], the results for the IC50 in test [1] and in test [2] were 20 µM and 2000 nM, respectively.

For `COC1(CF)CN(CC2(COc3nc4c5c(nc(-c6cc(N)nc(C)c6C(F)(F)F)c(F)c5n3)O[C@@H](C)[C@@H]3[C@@H]5CC[C@H](CN43)N5)CC2)C1` [Compound 272], the results for the IC50 in test [1] and in test [2] were 5.48 µM and 4.58 nM, respectively.
